Measurements as given in patent US6599706B1, “Recombinant PR-3 and assays employing the same” (Chiron Corporation, priority 1994, dated 2003).
Entries after “also recorded” stand apart in the source; their conditions may differ. Values belong to the compound of their own block, whether it stands above or below them.

Columns and labels:
[1] = biological target: T1, TNFα convertase from HL60 cells (Homo sapiens, UniProt P24158); assay: 35S-labelled 26 kD TNFα in vitro transcription/translation autoradiographic convertase assay with HL60 convertase (P-30 fraction); assay type: biochemical; details: 30° C., 1 hour, SDS-PAGE autoradiography
T1 construct: solution containing convertase activity partially purified from uninduced HL60 cells; endogenous in cells
T1 sequence (P24158 28-248): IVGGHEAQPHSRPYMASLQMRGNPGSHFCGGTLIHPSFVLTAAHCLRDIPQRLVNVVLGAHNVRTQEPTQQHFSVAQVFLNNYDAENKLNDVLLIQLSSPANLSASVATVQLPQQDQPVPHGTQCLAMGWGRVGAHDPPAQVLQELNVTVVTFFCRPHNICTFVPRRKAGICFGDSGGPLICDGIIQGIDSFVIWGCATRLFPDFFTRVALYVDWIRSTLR
Description: A preferred assay procedure consists of in vitro transcription/translation to produce the 26 kD molecule, followed by treatment with convertase in the presence or absence of compounds being tested for convertase inhibitory activity. The procedure entails in vitro transcription/translation of the TNFα cDNA present in the pGEM vector. Thus, the sequence was removed from pB11 by Pst I digestion and was inserted into the Pst I site of pGEM-3 (obtainable from Promega Biotec, Madison Wis.). The resulting plasmid, termed pGEM-TNFα14, was amplified in E. coli using established techniques, and plasmid DNA was prepared according to the procedure of Birnboim and Doly, described above. Plasmid DNA was transcribed in vitro by linearizing it with Hind III, and the linearized plasmid templates were used to prepare capped transcripts with T7 RNA polymerase and an in vitro transcription kit supplied by Promega Biotec (Madison, Wis.).
The mRNA produced above was translated in vitro in the presence of ^35S-cysteine to produce ^35S-cysteine-labelled 26 kD TNFα. A rabbit reticulocyte lysate translation kit was used, also supplied by Promega Biotec, and the conditions recommended by the manufacturer were followed.
^35S-cysteine-labelled 26 kD TNFα was used to assay for convertase inhibitors as follows. 25 μl of in vitro translated material was combined with 250 μl of solution containing convertase activity partially purified from uninduced HL60 cells, plus compounds to be assayed for inhibitory activity. The convertase was produced by harvesting 2×10^9 HL60 cells, disrupting the cells, and isolating S-1 (supernatant fluid from a 100,000 ×g centrifugation) and P-30 (pellet from a 30,000×g centrifugation) fractions totalling 18 and 6 ml, respectively. 250 μl of the P-30 fraction was used, although the S-1 fraction may also be used. The assay was carried out at 30° C. for 1 hour, essentially as described above. Next, the reaction mixture was immunoprecipitated with rabbit anti-human TNFα polyclonal antisera (produced from TNFα made in E. coli) and protein A Sepharose, pelleted and washed. […]

[2] = biological target: T2, PR-3 (Homo sapiens, UniProt P24158); assay: Inhibition of PR-3, summary statement of the assays shown below; assay type: biochemical
T2 sequence (P24158 28-248): T1 sequence (P24158 28-248)
Description: As shown below, PR-3 is inhibited by peptide diphenyl phosphonate inhibitors, elastinal, and dichloro-isocoumarin (DCI). The peptide diphenyl phosphonate inhibitors include Boc-Val-Pro-Val-p(OPh)2 and Boc-Ala-Pro-Val-p(OPh)2 (BOC-butoxycarbonyl). […] “Boc” means N-tert-butoxycarbonyl and “p(OPh)2” represents the diphenyl phosphonate moiety, wherein the formula—COOH group is replaced with P(=0)-(O-phenyl)2. See Oleksyszyn et al., Biochem 30:485 (1991). It will be appreciated that other peptide diphenyl phosphonate molecules may inhibit PR-3. Potential inhibitors may be constructed using the procedures shown in Oleksyszyn et al., supra, using small aliphatic peptides, for an example. Once the potential inhibitors are made, they may be tested in the assays shown below.

[3] = biological target: T3, TNFα convertase/PR-3 (purified native PR-3) (Homo sapiens, UniProt P24158); assay: Colorimetric Boc-Ala-ONp assay for convertase inhibition; assay type: biochemical; details: for inhibition of TNFα convertase/PR-3 activity: 35 μM
T3 construct: from tissue; host or cells: human blood neutrophils
T3 sequence (P24158 28-248): T1 sequence (P24158 28-248)
Method: TNFα convertase inhibition can also be measured by a colorimetric assay. In this type of assay, the actual activity of TNFα convertase is measured directly using a colorimetric TNFα convertase substrate. […] One such substrate is Boc-Ala-ONp (Bachem Bioscience, Inc., Philadelphia, Pa.). Other potentially useful substrates can be predicted from the structure of TNFα convertase and other serine proteases. Although the example herein uses purified native PR-3 as the TNFα convertase, it is contemplated that recombinant PR-3 or other TNFα convertases can be used in this assay as well.
Peptide diphenyl phosphonate inhibitors were synthesized and stored as lyophilized solids as described in Oleksyszyn and Powers, Biochem 30:485-493 (1991). Inhibitor solutions (10 mg/ml) were prepared in 100% dimethyl sulfoxide (DMSO) and diluted into aqueous buffers upon initiation of the experiments. 3,4, dichloro-isocoumarin was purchased from CalBiochem. Purified PR-3 (10 μl, 0.1 mg/ml) was mixed with varying concentrations of protease inhibitor ([…]) in 20 mM sodium phosphate buffer, pH 7.0, containing 0.1 M sodium chloride. Aliquots (40 μl) were removed at selected times and diluted 1/10 into a colorimetric assay for convertase, containing 0.5-1 mM Boc-Ala-ONp (prepared fresh from a 50 mM stock in 100% methanol) in 0.02 M sodium phosphate buffer, pH 7.0, 0.1 M sodium chloride. The increase in absorbance was monitored at 347 nm on a Hewlett Packard 8450A spectrophotometer, and using an extinction coefficient of 5.5×10^3 M^−1cm^−1 to calculate units of enzyme activity.
The peptide diphenyl phosphonates were tested in the colorimetric assay described in Example 3, for inhibition of TNFα convertase/PR-3 activity.

[4] = biological target: T4, recombinant PR-3 (rPR-3) (Homo sapiens, UniProt P24158); assay: Residual recombinant PR-3 activity with Boc-Ala-ONp substrate; assay type: biochemical
T4 construct: made in house; host or cells: Sf9 insect cells (baculovirus, pAcC13preproPR-3)
T4 sequence (P24158 28-248 limits assumed): T1 sequence (P24158 28-248)
Method: Cytoplasmic anti-neutrophil cytoplasmic antibodies (c-ANCA) are human polyclonal antibodies derived from patients with Wegener's granulomatosis. […] Protein-A-purified human c-ANCA (supplied by Dr. Erik Hack, The Netherlands) was mixed with purified recombinant PR-3 (SEQ ID NO: 23) prepared as described above at various molar ratios of antibody to enzyme, and after incubation for 1 hour at 37° C., residual enzyme activity was measured using the Boc-Ala-ONp substrate as described in Example 4.
The two peptide diphosphonate inhibitors, Boc-Ala-Pro-Val-(OPh)2 and Boc-Val-Pro-Val-(OPh)2, were mixed at various concentrations with 125 ng of rPR-3 (prepared as described above) and incubated for 1 hour at 25° C. The residual enzyme activity was measured using the Boc-Ala-ONp substrate and compared to the same amount of enzyme incubated in the absence of inhibitor. Under these conditions, the Boc-Ala-Pro-Val-(OPh)2 inhibited PR-3 with an IC50 of about 10 μM and the Boc-Val-Pro-Val-(OPh)2 inhibited PR-3 with an IC50 of about 0.4 μM. […] Thus, recombinant PR-3 may be employed in detection of useful inhibitors of native PR-3.

[5] = tested on: mice; assay: Toxicity of DCI/oil injected into mice; assay type: in vivo, mouse; details: injection of DCI/oil into mice
Description: (§1) This represented a maximal tolerated dose of DCI that could be administered.

[6] = tested on: serum IL-6; assay: Serum IL-6 in mice injected with a lethal dose of LPS; assay type: in vivo, mouse; details: DCI injected 1 hour before lethal LPS dose
Description: (§2) The kinetics of induction TNFα and IL-6 in mice injected with a lethal dose of LPS was studied. […] Also, there was a delayed increase in TNFα measured up to the 6-hour time point. This was true for both immunoreactive mouse TNFα measured by ELISA and bioactive YNFα measured by lysis of L929 cells. IL-6 levels were not reduced by this therapy.

[7] = Stability and formulation studies in corn oil; assay type: physicochemical; details: dissolved in corn oil
Description: as §1

[8] = biological target: T5, purified native PR-3 from human neutrophils (Homo sapiens, UniProt P24158); assay: 35S-labelled 26 kD TNFα autoradiographic convertase assay with purified native PR-3; assay type: biochemical; details: 45 μM; PR-3 0.3 μg/ml preincubated 30 minutes
T5 construct: from tissue; host or cells: human blood neutrophils
T5 sequence (P24158 28-248): T1 sequence (P24158 28-248)
Method: ^35S-cysteine-labelled 26 kD TNFα was used to assay for convertase inhibitors as follows. 25 μl of in vitro translated material was combined with 250 μl of solution containing convertase activity partially purified from uninduced HL60 cells, plus compounds to be assayed for inhibitory activity. The convertase was produced by harvesting 2×10^9 HL60 cells, disrupting the cells, and isolating S-1 (supernatant fluid from a 100,000 ×g centrifugation) and P-30 (pellet from a 30,000×g centrifugation) fractions totalling 18 and 6 ml, respectively. 250 μl of the P-30 fraction was used, although the S-1 fraction may also be used. The assay was carried out at 30° C. for 1 hour, essentially as described above. Next, the reaction mixture was immunoprecipitated with rabbit anti-human TNFα polyclonal antisera (produced from TNFα made in E. coli) and protein A Sepharose, pelleted and washed. The bound protein was eluted and electrophoresed using SDS-PAGE. The gel was fixed in 40% methanol, 10% acetic acid, soaked in Enlightening (Dupont), dried, and exposed to X-ray film which was subsequently developed.
The above assay was also used with purified native PR-3 from human neutrophils to test a variety of proteinase inhibitors for their ability to inhibit TNFα convertase activity, as shown in FIG. 5. Purified PR-3 (0.3 μg/ml) was preincubated for 30 minutes with the following inhibitors prior to addition of ^35S-labelled 26 kD-TNFα, and then assayed as described above: DCI (45 μM), α-2-macroglobulin (1 mg/ml), PMSF (20 μM), leupeptin (2 μg/ml), EDTA (10 mM), or pepstatin (2 μg/ml).

[9] = tested on: IL-6 release from mouse macrophages; assay: LPS-induced IL-6 secretion by adherent peritoneal macrophages (B9 bioassay); assay type: cell-based
Method: (§3) Release of TNFα by macrophages after stimulation by LPS is a major source of TNFα in the host. In these studies peritoneal macrophages were purified by adhesion, cultured in 24 well plates, and LPS was added to induce secretion of TNFα. […] DCI was then added in dimethyl sulfoxide vehicle to cultures. The control cultures had DMSO alone added in equivalent concentrations. Supernatants were collected and assayed for TNFα and IL-6. […] [table]

[10] = tested on: TNFα release from mouse macrophages; assay: LPS-induced TNFα secretion by adherent peritoneal macrophages (ELISA); assay type: cell-based
Method: as §3

[11] = tested on: serum TNFα; assay: Serum TNFα in mice injected with a lethal dose of LPS; assay type: in vivo, mouse; details: DCI injected 1 hour before lethal LPS dose; ELISA and L929 lysis
Description: as §2

[12] = tested on: mice injected with LPS; assay: Survival of mice injected with a lethal dose of LPS; assay type: in vivo, mouse
Method: The effect of DCI on survival of mice injected with a dose of LPS that results in 100% death of animals by 24 hours was also investigated.

[13] = LPS-stimulated peritoneal macrophages, versus DMSO vehicle

inhibition of convertase activity (conversion of 26 kD TNFα) ([1]; 1 mM): inhibits convertase activity
SMILES: CO[C@@H]1C(=O)N2C(C(=O)N3CCOCC3)=C(COC(C)=O)CS(=O)(=O)[C@H]12 (relative stereo) [(1-((3-((acetyloxyl)-7-methoxy-8-oxy-8-oxo-5-thio-1-azabicyclo [4.2.0]oct-2-en-2-yl)carbonyl)morpholine, S, S-dioxide, (6R-cis)]

inhibition of PR-3 [2]: much less inhibitory activity
inhibition of TNFα convertase/PR-3 activity [3]: marginal, if any inhibition
SMILES: CC(NC(=O)OC(C)(C)C)C(=O)NC(CCC(N)=O)C(=O)NC(C)P(=O)(Oc1ccccc1)Oc1ccccc1 (stereo not drawn) [AQA, Boc-Ala-Gln-Ala-p(OPh)2]

inhibition of PR-3 [2]: much less inhibitory activity
inhibition of TNFα convertase/PR-3 activity [3]: marginal, if any inhibition
SMILES: CC(C)CC(NC(=O)OC(C)(C)C)C(=O)NC(C)C(=O)NC(CCC(N)=O)C(=O)NC(C)P(=O)(Oc1ccccc1)Oc1ccccc1 (stereo not drawn) [LAQA, Boc-Leu-Ala-Gln-Ala-p(OPh)2]

Further lines, the compound ahead of its results:

SMILES: CC(C)C(NC(=O)[C@@H]1CCCN1C(=O)[C@H](C)NC(=O)OC(C)(C)C)P(=O)(Oc1ccccc1)Oc1ccccc1 (stereo partly drawn) [APV, Boc-Ala-Pro-Val-p(OPh)2]
inhibition of PR-3 [2]: inhibited
inhibition of TNFα convertase/PR-3 activity [3]: demonstrated inhibitory activity
IC50 [4]: ~10 µM

SMILES: O=c1oc(Cl)c(Cl)c2ccccc12 [DCI, 3,4 dichloroisocoumarin]
LD 50% [5]: 1 mg/mL
inhibition of PR-3 [2]: inhibited
inhibition at 95 µM ([3]; 95 μM): 100%
inhibition of the convertase (conversion of 26 kD TNFα) ([1]; 100 pg/ml): inhibit the convertase
IL-6 levels [6]: not reduced
stability [7]: stable and retained serine protease inhibitor activity
inhibition of TNFα convertase activity of purified PR-3 [8]: significant inhibitory activity
IL-6 ([9]; DCI 20 μg/ml, macrophages 10^6/ml with LPS, 3 hours, B9 bioassay): 189 pg/mL
IL-6 response [9, 13]: not significantly altered
TNFα ([10]; DCI 20 μg/ml, macrophages 10^6/ml with LPS, 3 hours, ELISA): 0.05 ng/mL
TNFα secretion [10, 13]: markedly suppressed
serum TNFα [11]: marked inhibition; also recorded: decreased
dose response of survival effect ([12]; 0.75 mg of DCI compared with 0.5 mg): more effective than 0.5 mg
survival ([12]; prophylactic DCI, LPS dose giving 100% death by 24 hours): prolong survival
